{"source": "patent US20230035823A1", "about": "“ANTIHISTAMINE AND ANTI-MICROBIAL NASAL SOLUTIONS AND RELATED METHODS” (Xlear, Inc., priority 2021, published 2023)", "origin": "cited, not measured here", "key": {"[1]": {"tested_on": "Streptococcus pneumonia", "conditions": "in vitro, during logarithmic growth phase"}, "[2]": {"conditions": "regular consumption"}, "[3]": {"conditions": "in vivo"}}, "data": [{"molecule": "OC[C@@H](O)[C@H](O)[C@@H](O)CO", "note": "[Xylitol, xylitol]", "values": [{"measurement": "growth of Streptococcus pneumonia", "setting": "[1]", "value": "inhibit the growth"}, {"measurement": "incidence of dental caries", "setting": "[2]", "value": "reduce the incidence of dental caries"}, {"measurement": "moisturizing nasal passages", "setting": "[3]", "value": "very effective"}]}]}
